# Key:
# human GnRH receptor = biological target: T1, human GnRH receptor (Homo sapiens, UniProt P30968); test: affinity for human GnRH receptor; format: binding; conditions: kind of constant not given; also for salts such as the choline salt
# T1 sequence (P30968 1-328): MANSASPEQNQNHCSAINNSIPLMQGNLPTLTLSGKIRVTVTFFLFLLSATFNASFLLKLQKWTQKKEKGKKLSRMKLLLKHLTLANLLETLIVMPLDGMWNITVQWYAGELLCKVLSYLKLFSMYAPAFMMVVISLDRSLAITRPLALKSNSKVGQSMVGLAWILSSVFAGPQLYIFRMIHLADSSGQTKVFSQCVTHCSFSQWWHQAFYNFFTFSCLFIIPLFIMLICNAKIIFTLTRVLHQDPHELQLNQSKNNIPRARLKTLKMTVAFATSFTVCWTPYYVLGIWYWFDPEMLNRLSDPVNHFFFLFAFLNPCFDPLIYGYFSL
# [1] = adverse events, same clinical trial; format: in vivo, human
# Protocol: The experiments described in this example were conducted as part of a single-center, open-label, randomized, parallel-group clinical trial in 32 pre-menopausal women. Following screening assessments, and during the second half of the menstrual cycle, women received norethindrone (5 mg, three-times daily for 10 days) to synchronize menstrual cycles. After menstrual cycle synchronization, subjects were randomized with a 1:1 ratio to one of two treatment arms: (i) a cohort receiving once-daily administration of compound (VI) (200 mg per day, administered in the form of a choline salt) with concurrent onset of add-back therapy administration for 10 weeks (“Concurrent-ABT”), or (ii) a cohort receiving pre-treatment with compound (VI) (200 mg per day, administered in the form of a choline salt) for 4 weeks followed by combined daily administration of compound (VI) and add-back therapy (“Delayed-ABT”). The add-back therapy used in these experiments contained 1.0 mg of E2 and 0.5 mg of norethindrone acetate, and was administered to subjects once daily.
# The main treatment outcomes and endpoints measured during these experiments included (i) a qualitative assessment of uterine blood loss, which was recorded on a daily basis throughout the study by characterizing each subject's bleeding pattern using one of the following four categories: “no bleeding,” “spotting” (light staining, dark blood, no sanitary protection needed or only panty liner), “bleeding” (1-4 completely soiled maxi sanitary towels or 1-8 soiled tampons or equivalent combination of the two), or “heavy bleeding” (>4 completely soiled maxi sanitary towels or >8 soiled tampons or equivalent combination of the two); (ii) a bi-weekly assessment of each subject's circulating E2 concentration; (iii) a bi-weekly assessment of each subject's circulating progesterone concentration (measured using a validated commercial chemiluminescence immunoassay method (Elecsys Progesterone III, Roche, Burgess Hill, UK)); (iv) the pharmacokinetic profile of compound (VI) and the add-back therapy; and (v) adverse events.
# [2] = Days 1-14, treatment A (Concurrent-ABT), N=16
# [3] = Days 1-14, treatment B (Delayed-ABT), N=16
# [4] = Days 15-28, Overall (A+B), N=32
# [5] = Days 15-28, treatment A (Concurrent-ABT), N=16
# [6] = Days 15-28, treatment B (Delayed-ABT), N=16
# [7] = Days 29-42, Overall (A+B), N=29
# [8] = Days 29-42, treatment A (Concurrent-ABT), N=14
smiles,measurement,setting,value
"COc1cc(F)c(-n2c(=O)[nH]c3csc(C(=O)O)c3c2=O)cc1OCc1c(OC)ccc(F)c1F [Compound (VI), 3-[2-fluoro-5-(2,3-difluoro-6-methoxybenzyloxy)4-methoxyphenyl]-2,4-dioxo-1,2,3,4-tetrahydrothieno [3,4d]pyrimidine-5-carboxylic acid]",Ki,human GnRH receptor,27.4 nM
same,"hot flushes, cohort of occurrence",[1]; Concurrent-ABT versus Delayed-ABT,exclusively occurred in the “Delayed-ABT” group
same,"Hot Flush, subjects (%), Plasma Estradiol Level 20-50 pg/mL","[1]; Days 1-14, Overall (A+B), N=32",(0.0%)
same,"Hot Flush, subjects (%), Plasma Estradiol Level <20 pg/mL","[1]; Days 1-14, Overall (A+B), N=32",(6.3%)
same,"Hot Flush, subjects (%), Plasma Estradiol Level >50 pg/mL","[1]; Days 1-14, Overall (A+B), N=32",(0.0%)
same,"Hot Flush, subjects (n), Plasma Estradiol Level 20-50 pg/mL","[1]; Days 1-14, Overall (A+B), N=32",0
same,"Hot Flush, subjects (n), Plasma Estradiol Level <20 pg/mL","[1]; Days 1-14, Overall (A+B), N=32",2
same,"Hot Flush, subjects (n), Plasma Estradiol Level >50 pg/mL","[1]; Days 1-14, Overall (A+B), N=32",0
same,"Hot Flush, subjects (%), Plasma Estradiol Level 20-50 pg/mL",[1]; [2],(0.0%)
same,"Hot Flush, subjects (%), Plasma Estradiol Level <20 pg/mL",[1]; [2],(0.0%)
same,"Hot Flush, subjects (%), Plasma Estradiol Level >50 pg/mL",[1]; [2],(0.0%)
same,"Hot Flush, subjects (n), Plasma Estradiol Level 20-50 pg/mL",[1]; [2],0
same,"Hot Flush, subjects (n), Plasma Estradiol Level <20 pg/mL",[1]; [2],0
same,"Hot Flush, subjects (n), Plasma Estradiol Level >50 pg/mL",[1]; [2],0
same,"Hot Flush, subjects (%), Plasma Estradiol Level 20-50 pg/mL",[1]; [3],(0.0%)
same,"Hot Flush, subjects (%), Plasma Estradiol Level <20 pg/mL",[1]; [3],(12.5%)
same,"Hot Flush, subjects (%), Plasma Estradiol Level >50 pg/mL",[1]; [3],(0.0%)
same,"Hot Flush, subjects (n), Plasma Estradiol Level 20-50 pg/mL",[1]; [3],0
same,"Hot Flush, subjects (n), Plasma Estradiol Level <20 pg/mL",[1]; [3],2
same,"Hot Flush, subjects (n), Plasma Estradiol Level >50 pg/mL",[1]; [3],0
same,"Hot Flush, subjects (%), Plasma Estradiol Level 20-50 pg/mL",[1]; [4],(0.0%)
same,"Hot Flush, subjects (%), Plasma Estradiol Level <20 pg/mL",[1]; [4],(12.5%)
same,"Hot Flush, subjects (%), Plasma Estradiol Level >50 pg/mL",[1]; [4],(0.0%)
same,"Hot Flush, subjects (n), Plasma Estradiol Level 20-50 pg/mL",[1]; [4],0
same,"Hot Flush, subjects (n), Plasma Estradiol Level <20 pg/mL",[1]; [4],4
same,"Hot Flush, subjects (n), Plasma Estradiol Level >50 pg/mL",[1]; [4],0
same,"Hot Flush, subjects (%), Plasma Estradiol Level 20-50 pg/mL",[1]; [5],(0.0%)
same,"Hot Flush, subjects (%), Plasma Estradiol Level <20 pg/mL",[1]; [5],(0.0%)
same,"Hot Flush, subjects (%), Plasma Estradiol Level >50 pg/mL",[1]; [5],(0.0%)
same,"Hot Flush, subjects (n), Plasma Estradiol Level 20-50 pg/mL",[1]; [5],0
same,"Hot Flush, subjects (n), Plasma Estradiol Level <20 pg/mL",[1]; [5],0
same,"Hot Flush, subjects (n), Plasma Estradiol Level >50 pg/mL",[1]; [5],0
same,"Hot Flush, subjects (%), Plasma Estradiol Level 20-50 pg/mL",[1]; [6],(0.0%)
same,"Hot Flush, subjects (%), Plasma Estradiol Level <20 pg/mL",[1]; [6],(25.0%)
same,"Hot Flush, subjects (%), Plasma Estradiol Level >50 pg/mL",[1]; [6],(0.0%)
same,"Hot Flush, subjects (n), Plasma Estradiol Level 20-50 pg/mL",[1]; [6],0
same,"Hot Flush, subjects (n), Plasma Estradiol Level <20 pg/mL",[1]; [6],4
same,"Hot Flush, subjects (n), Plasma Estradiol Level >50 pg/mL",[1]; [6],0
same,"Hot Flush, subjects (%), Plasma Estradiol Level 20-50 pg/mL",[1]; [7],(10.3%)
same,"Hot Flush, subjects (%), Plasma Estradiol Level <20 pg/mL",[1]; [7],(6.9%)
same,"Hot Flush, subjects (%), Plasma Estradiol Level >50 pg/mL",[1]; [7],(0.0%)
same,"Hot Flush, subjects (n), Plasma Estradiol Level 20-50 pg/mL",[1]; [7],3
same,"Hot Flush, subjects (n), Plasma Estradiol Level <20 pg/mL",[1]; [7],2
same,"Hot Flush, subjects (n), Plasma Estradiol Level >50 pg/mL",[1]; [7],0
same,"Hot Flush, subjects (%), Plasma Estradiol Level 20-50 pg/mL",[1]; [8],(0.0%)
same,"Hot Flush, subjects (%), Plasma Estradiol Level <20 pg/mL",[1]; [8],(0.0%)
same,"Hot Flush, subjects (%), Plasma Estradiol Level >50 pg/mL",[1]; [8],(0.0%)
same,"Hot Flush, subjects (n), Plasma Estradiol Level 20-50 pg/mL",[1]; [8],0
same,"Hot Flush, subjects (n), Plasma Estradiol Level <20 pg/mL",[1]; [8],0
same,"Hot Flush, subjects (n), Plasma Estradiol Level >50 pg/mL",[1]; [8],0

# — patent US20230067378A1, “COMPOSITIONS AND METHODS FOR THE TREATMENT OF ESTROGEN-DEPENDENT DISORDERS” (ObsEva S.A., priority 2018, published 2023)
